Experimental data taken from PMC2848180 (American journal of obstetrics and gynecology, 2010).
Values joined by “and” are separate entries in the source; they are usually repeats but may differ in a detail not shown here. Equal entries are not always repeated.

Experiments:
[1] = system: placental ABC transporters (placental IOVs); type: in vitro ADME, human; conditions: for total ATP-dependent uptake by placental IOVs: 100 nM radiolabeled drug, 1 min, pool of 60 term placentas
MRP1 = MRP1 (Homo sapiens, UniProt P33527); conditions: placental IOVs
Chain of MRP1 (P33527 whole entry): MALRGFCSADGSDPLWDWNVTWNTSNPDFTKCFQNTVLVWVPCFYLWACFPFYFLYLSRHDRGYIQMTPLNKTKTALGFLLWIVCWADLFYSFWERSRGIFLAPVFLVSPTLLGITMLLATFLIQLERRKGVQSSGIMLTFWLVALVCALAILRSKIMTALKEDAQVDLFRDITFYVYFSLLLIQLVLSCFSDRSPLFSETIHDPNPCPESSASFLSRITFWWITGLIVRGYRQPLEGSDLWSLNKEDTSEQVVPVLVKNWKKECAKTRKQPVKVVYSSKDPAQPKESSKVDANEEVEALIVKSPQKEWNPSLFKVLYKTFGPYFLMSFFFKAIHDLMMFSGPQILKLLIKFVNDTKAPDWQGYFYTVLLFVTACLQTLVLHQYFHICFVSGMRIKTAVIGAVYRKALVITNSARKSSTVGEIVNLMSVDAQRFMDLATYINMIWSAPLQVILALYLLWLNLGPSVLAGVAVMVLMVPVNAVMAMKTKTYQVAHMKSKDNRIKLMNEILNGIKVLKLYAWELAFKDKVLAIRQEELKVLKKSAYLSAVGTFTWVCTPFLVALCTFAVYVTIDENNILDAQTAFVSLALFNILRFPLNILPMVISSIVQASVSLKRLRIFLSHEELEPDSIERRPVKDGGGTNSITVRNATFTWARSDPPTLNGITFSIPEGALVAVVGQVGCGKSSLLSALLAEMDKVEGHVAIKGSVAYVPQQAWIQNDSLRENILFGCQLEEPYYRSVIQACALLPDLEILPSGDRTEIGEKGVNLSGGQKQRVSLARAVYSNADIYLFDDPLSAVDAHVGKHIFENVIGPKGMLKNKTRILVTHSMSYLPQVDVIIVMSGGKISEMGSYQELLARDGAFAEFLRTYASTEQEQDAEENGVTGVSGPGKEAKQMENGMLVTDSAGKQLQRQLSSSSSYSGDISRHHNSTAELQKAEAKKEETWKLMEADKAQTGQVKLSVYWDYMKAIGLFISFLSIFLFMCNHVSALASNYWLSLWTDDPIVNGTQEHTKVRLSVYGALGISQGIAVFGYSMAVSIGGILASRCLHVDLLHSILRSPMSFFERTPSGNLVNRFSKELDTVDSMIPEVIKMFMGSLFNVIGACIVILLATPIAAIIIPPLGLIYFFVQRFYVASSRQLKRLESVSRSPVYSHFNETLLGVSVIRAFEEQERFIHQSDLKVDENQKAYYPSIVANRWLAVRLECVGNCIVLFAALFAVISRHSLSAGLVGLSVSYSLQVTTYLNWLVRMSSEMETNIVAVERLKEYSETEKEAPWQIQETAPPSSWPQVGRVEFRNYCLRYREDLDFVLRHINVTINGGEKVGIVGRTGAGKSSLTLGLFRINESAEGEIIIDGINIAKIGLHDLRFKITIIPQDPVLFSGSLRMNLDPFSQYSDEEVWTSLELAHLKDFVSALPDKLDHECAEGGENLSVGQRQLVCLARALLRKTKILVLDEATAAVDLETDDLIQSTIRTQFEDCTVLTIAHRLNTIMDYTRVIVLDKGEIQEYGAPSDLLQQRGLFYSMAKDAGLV

P-gp, BCRP, and MRP1 = conditions: 100 nM drug, 1 μM KO143, placental IOVs, 1 min
P-gp [2] = target: T1, P-gp (Homo sapiens, UniProt P08183); conditions: placental IOVs
T1 sequence (P08183 whole entry): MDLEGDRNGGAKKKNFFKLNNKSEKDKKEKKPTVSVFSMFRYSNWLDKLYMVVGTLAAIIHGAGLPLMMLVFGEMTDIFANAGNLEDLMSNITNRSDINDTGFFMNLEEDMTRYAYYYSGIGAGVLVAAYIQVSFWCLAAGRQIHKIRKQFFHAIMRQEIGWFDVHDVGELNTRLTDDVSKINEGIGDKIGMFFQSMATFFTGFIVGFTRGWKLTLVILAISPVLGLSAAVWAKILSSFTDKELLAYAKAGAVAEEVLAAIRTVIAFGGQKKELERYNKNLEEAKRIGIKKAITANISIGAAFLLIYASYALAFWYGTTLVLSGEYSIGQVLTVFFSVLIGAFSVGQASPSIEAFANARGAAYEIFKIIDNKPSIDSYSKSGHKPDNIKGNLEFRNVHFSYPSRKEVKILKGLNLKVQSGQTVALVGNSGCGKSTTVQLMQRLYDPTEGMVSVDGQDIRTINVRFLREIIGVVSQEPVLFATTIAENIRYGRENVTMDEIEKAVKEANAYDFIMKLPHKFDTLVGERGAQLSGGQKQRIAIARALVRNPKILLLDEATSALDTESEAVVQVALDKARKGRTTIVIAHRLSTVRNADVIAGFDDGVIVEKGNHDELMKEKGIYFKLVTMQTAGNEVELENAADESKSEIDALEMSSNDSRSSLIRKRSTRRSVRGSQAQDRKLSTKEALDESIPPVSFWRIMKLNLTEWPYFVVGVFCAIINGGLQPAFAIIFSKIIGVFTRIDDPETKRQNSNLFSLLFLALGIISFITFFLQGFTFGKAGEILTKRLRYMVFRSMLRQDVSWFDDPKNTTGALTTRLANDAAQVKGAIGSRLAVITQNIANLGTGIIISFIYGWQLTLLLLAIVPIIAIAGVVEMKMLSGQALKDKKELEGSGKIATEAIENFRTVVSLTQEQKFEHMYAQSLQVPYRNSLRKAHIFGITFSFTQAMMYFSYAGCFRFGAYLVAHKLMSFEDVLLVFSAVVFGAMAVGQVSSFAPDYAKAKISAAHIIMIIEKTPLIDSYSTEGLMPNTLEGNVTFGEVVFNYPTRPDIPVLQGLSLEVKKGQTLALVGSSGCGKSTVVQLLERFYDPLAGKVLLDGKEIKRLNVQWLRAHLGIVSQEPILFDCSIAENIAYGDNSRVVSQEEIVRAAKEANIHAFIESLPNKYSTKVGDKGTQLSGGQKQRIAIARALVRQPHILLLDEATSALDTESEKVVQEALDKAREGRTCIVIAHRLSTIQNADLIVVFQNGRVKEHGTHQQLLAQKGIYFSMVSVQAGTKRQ

BCRP = target: T2, BCRP (Homo sapiens, UniProt Q9UNQ0); conditions: 100 nM drug, 25 nM KO143, placental IOVs, 1 min
T2 sequence (Q9UNQ0 1-655): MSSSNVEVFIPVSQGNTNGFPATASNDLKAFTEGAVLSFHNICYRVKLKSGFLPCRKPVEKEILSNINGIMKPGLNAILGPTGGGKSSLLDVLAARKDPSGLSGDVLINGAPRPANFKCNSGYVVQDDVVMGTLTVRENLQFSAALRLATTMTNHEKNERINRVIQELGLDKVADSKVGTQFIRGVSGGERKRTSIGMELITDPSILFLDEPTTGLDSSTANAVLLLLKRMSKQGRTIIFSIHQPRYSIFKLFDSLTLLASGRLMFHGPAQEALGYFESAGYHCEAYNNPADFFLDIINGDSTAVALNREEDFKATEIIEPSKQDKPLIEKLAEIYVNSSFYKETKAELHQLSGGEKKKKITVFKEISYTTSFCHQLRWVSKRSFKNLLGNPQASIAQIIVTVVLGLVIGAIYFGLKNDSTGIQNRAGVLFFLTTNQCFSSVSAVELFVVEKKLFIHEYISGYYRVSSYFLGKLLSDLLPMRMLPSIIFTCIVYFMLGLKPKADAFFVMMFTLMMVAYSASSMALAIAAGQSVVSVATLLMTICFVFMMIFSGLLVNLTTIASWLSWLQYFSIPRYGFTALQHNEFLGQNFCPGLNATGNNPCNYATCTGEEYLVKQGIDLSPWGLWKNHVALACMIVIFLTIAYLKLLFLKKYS

P-gp [3] = target: T1, P-gp; assay: Inhibition of [3H]-rosiglitazone uptake by placental IOVs by cold metformin; type: in vitro ADME
P-gp [4] = target: T1, P-gp; conditions: placental brush border membrane vesicles; cited from earlier work
[5] = 100 nM, ABC transporters examined

Compound: COc1ccc(Cl)cc1C(=O)NCCc1ccc(S(=O)(=O)NC(=O)NC2CCCCC2)cc1 [glyburide]
- total ATP-dependent uptake by placental IOVs [1]: 3.2 ± 0.3 pmol/mg protein*min
- apparent Kt of ATP-dependent transport by MRP1 (MRP1): 358 ± 195 nM
- decrease of uptake on total inhibition of P-gp, BCRP, and MRP1 using 1 μM KO143 (P-gp, BCRP, and MRP1): 78 ± 4%

Compound: CN(C)C(=N)N=C(N)N [metformin]
- total ATP-dependent uptake by placental IOVs [1]: 35 pmol/mg protein*min
- fold greater total transport than glyburide [1, 5]: 10 fold
- fold greater total transport than rosiglitazone [1, 5]: 30 fold
- decrease of uptake on inhibition of P-gp by verapamil (transport by P-gp) (P-gp [2]; 100 nM drug, 600 μM verapamil, 1 min): 58 ± 20% and 58 ± 10%
- apparent Kt of ATP-dependent transport by P-gp (P-gp [2]): 100 ± 85 nM
- decrease of uptake on inhibition of MRP1 by indomethacin (transport by MRP1) (MRP1; 100 nM drug, 100 μM indomethacin, 1 min): no effect
- decrease of uptake on total inhibition of P-gp, BCRP, and MRP1 using 1 μM KO143 (P-gp, BCRP, and MRP1): 89 ± 6%
- decrease of uptake on inhibition of BCRP by 25 nM KO143 (transport by BCRP) (BCRP): 25 ± 14% and 25 ± 8%
- IC50 (P-gp [3]): ~600 nM
- inhibition at 1 min (P-gp [3]; human, placental inside-out vesicles (IOVs), probe [3H]-rosiglitazone, 100 nM): 69 ± 6%

Compound: CC(=O)O[C@H]1C(=O)[C@@]2(C)[C@H]([C@H](OC(=O)c3ccccc3)[C@]3(O)C[C@H](OC(=O)[C@H](O)[C@@H](NC(=O)c4ccccc4)c4ccccc4)C(C)=C1C3(C)C)[C@]1(OC(C)=O)CO[C@@H]1C[C@@H]2O [paclitaxel]
- Kt of P-gp-mediated transport (P-gp [4]): 66 ± 38 nM
- Vmax of P-gp-mediated transport (P-gp [4]): 20 ± 3 pmol/mg protein*min

Compound: CN(CCOc1ccc(CC2SC(=O)NC2=O)cc1)c1ccccn1 (stereo not shown) [rosiglitazone]
- total ATP-dependent uptake by placental IOVs [1]: 1.2 ± 0.2 pmol/mg protein*min
